± gives the uncertainty stated by the source.
Assay: xn = mol fraction of the nth substance listed
Conditions: 100 kPa

CC[n+]1ccn(C)c1.O=S(=O)([O-])O + CC[C@H](C)[C@H](N)C(=O)O + O
viscosity [mPa·s]
Conditions	293.15 K	298.15 K	303.15 K	308.15 K	313.15 K
x2 = 0, x1 = 0.0005421	1.046 ± 0.033	0.929 ± 0.032	0.824 ± 0.031	0.75 ± 0.031	0.678 ± 0.031
x2 = 0, x1 = 0.0009056	1.068 ± 0.033	0.949 ± 0.032	0.843 ± 0.031	0.759 ± 0.031	0.684 ± 0.031
x2 = 0, x1 = 0.001263	1.073 ± 0.032	0.966 ± 0.032	0.866 ± 0.032	0.78 ± 0.031	0.697 ± 0.031
x2 = 0.0004219, x1 = 0.0009052	1.093 ± 0.032	0.961 ± 0.032	0.853 ± 0.031	0.769 ± 0.031	0.693 ± 0.031
x2 = 0.0004673, x1 = 0.001263	1.101 ± 0.032	0.979 ± 0.032	0.878 ± 0.032	0.79 ± 0.031	0.708 ± 0.031
x2 = 0.0005036, x1 = 0.0005418	1.075 ± 0.033	0.943 ± 0.032	0.837 ± 0.031	0.762 ± 0.031	0.69 ± 0.031
x2 = 0.0007653, x1 = 0.0009049	1.113 ± 0.032	0.97 ± 0.032	0.862 ± 0.032	0.777 ± 0.031	0.701 ± 0.031
x2 = 0.0008312, x1 = 0.0005417	1.094 ± 0.033	0.953 ± 0.032	0.845 ± 0.031	0.77 ± 0.031	0.697 ± 0.031
x2 = 0.000832, x1 = 0.001262	1.122 ± 0.032	0.989 ± 0.032	0.887 ± 0.032	0.799 ± 0.031	0.716 ± 0.031
x2 = 0.0009488, x1 = 0.0005416	1.1 ± 0.033	0.956 ± 0.032	0.848 ± 0.031	0.773 ± 0.031	0.7 ± 0.031
x2 = 0.00107, x1 = 0.0009046	1.131 ± 0.033	0.979 ± 0.032	0.87 ± 0.032	0.785 ± 0.031	0.708 ± 0.031
x2 = 0.001216, x1 = 0.001262	1.145 ± 0.032	0.999 ± 0.032	0.897 ± 0.032	0.808 ± 0.031	0.724 ± 0.031
x2 = 0.001364, x1 = 0.001262	1.154 ± 0.032	1.003 ± 0.032	0.901 ± 0.032	0.812 ± 0.031	0.728 ± 0.031
x2 = 0.001515, x1 = 0.0009042	1.157 ± 0.033	0.991 ± 0.032	0.881 ± 0.032	0.795 ± 0.031	0.717 ± 0.031
x2 = 0.001572, x1 = 0.0005413	1.136 ± 0.033	0.973 ± 0.032	0.864 ± 0.031	0.789 ± 0.031	0.714 ± 0.031
x2 = 0.001693, x1 = 0.0005412	1.143 ± 0.033	0.977 ± 0.032	0.867 ± 0.031	0.792 ± 0.031	0.717 ± 0.031
x2 = 0.001746, x1 = 0.001261	1.176 ± 0.033	1.013 ± 0.032	0.91 ± 0.032	0.821 ± 0.031	0.736 ± 0.031
x2 = 0.001796, x1 = 0.000904	1.174 ± 0.033	0.999 ± 0.032	0.888 ± 0.032	0.802 ± 0.031	0.724 ± 0.031
x2 = 0.002205, x1 = 0.0009036	1.198 ± 0.06	1.01 ± 0.049	0.898 ± 0.032	0.812 ± 0.031	0.733 ± 0.031
x2 = 0.002228, x1 = 0.0005409	1.174 ± 0.033	0.991 ± 0.033	0.881 ± 0.032	0.805 ± 0.031	0.729 ± 0.031
x2 = 0.002256, x1 = 0.001261	1.206 ± 0.033	1.027 ± 0.032	0.923 ± 0.032	0.833 ± 0.031	0.747 ± 0.031
x2 = 0.002728, x1 = 0.00126	1.23 ± 0.11	1.04 ± 0.087	0.935 ± 0.032	0.844 ± 0.031	0.758 ± 0.031

From the CheMixHub ionic liquid set
